Reference: patent publication US20060194835A1, “Compositions and methods for treating or preventing flaviviridae infections” (priority 2005, published 2006)

Key:
BVDV [1] = test: Triple combination checkerboard CPE assay (celgosivir or castanospermine + interferon-α2b + ribavirin), MacSynergy II; type: cell-based, bovine viral diarrhea virus; settings: for EC50: Bovine viral diarrhea virus isolates and strains, read-out: Average Celgosivir EC50
Description: Each double or triple combination was performed twice. The combination efficacy data were analyzed using the MacSynergy™ II software program as described herein.
Each double or triple combination was performed twice. The combination efficacy data were analyzed using the MacSynergy™ II software program as described herein. The EC50 for each of celgosivir and castanospermine was calculated from the triple combination studies described in Example 6.
Each double or triple combination was performed twice. The combination efficacy data were analyzed using the MacSynergy™ software program as described herein. The EC50 for interferon-α2b was calculated from the triple combination studies described in Example 6.

in vitro [2] = settings: bovine
[3] = Pharmacokinetics of orally administered celgosivir in rats (plasma castanospermine); type: in vivo, Male Sprague-Dawley rats; settings: normal rats; loperamide 0.35 mg/kg
Description: The purpose of this study was to evaluate the effect of an anti-diarrheal agent on the pharmacokinetics (PK) of orally administered celgosivir. In addition, the effect of anti-diarrheal agents on celgosivir PK was investigated. The pharmacokinetics of celgosivir was assessed by following the plasma profile of celgosivir's primary metabolite, castanospermine. By way of background, orally administered celgosivir, although well tolerated in humans, does produce side effects in the gastrointestinal tract, including flatulence and mild to moderate diarrhea. Loperamide hydrochloride, an anti-motility agent that is an active ingredient found in some over-the-counter medications used for symptomatic relief of acute and chronic diarrhea, was investigated for its effect on the PK of orally administered celgosivir. […]
At various time-points after celgosivir administration, blood samples were withdrawn from animals via the tail vein. Plasma samples were generated and stored frozen until analyzed. Plasma samples were analyzed for castanospermine, the major metabolite of celgosivir, using LC/MS. […] Celgosivir pharmacokinetics was assessed by following the plasma concentration of its primary metabolite, castanospermine. Pharmacokinetic parameters were calculated according to a two-compartment model with bio-exponential decay using the method of residuals. […]

BVDV strain NADL = test: Inhibition of viral release from BVDV-infected MDBK cells (plaque titer); settings: for EC50 / EC90: Bovine viral diarrhea virus isolates and strains, MDBK, 24 h
BVDV [4] = test: Double combination checkerboard CPE assay, MacSynergy II and isobolograms; type: cell-based, bovine viral diarrhea virus
Description: A double combination assay was performed using MDBK cells infected with BVDV in an inhibition of cytopathic effect (CPE) assay as described in Example 2. The double drug combinations were measured by creating a “checkerboard” of drug concentrations used on cell monolayers in microtiter plates, with one drug being titrated horizontally and the other drug titrated vertically, and each double combination being tested at least twice.
The EC50 values of a first test compound derived while in combination with a second test compound were plotted against the corresponding concentration of the second test compound to create an isobole (dose pair). All of the isoboles were plotted in an isobologram to determine the presence of synergy, antagonism or additivity for the combined test compounds. […] The line connecting the monotherapy EC50 values represents the theoretical additivity effect values for the two compounds.
In addition to generating isobolograms, the checkerboard data was imported into MacSynergy™ II software to graph the observed synergy (or additive or antagonism) volumes for the double combinations tested. Briefly, the calculated additive interactions were subtracted from the experimentally determined values to reveal the corresponding drug concentrations at which a synergistic (indicated by positive % values) or antagonistic (indicated by negative % values) effect is observed. The greater the positive percent volume observed, the greater the synergy between the two compounds. […] In contrast, any value about or less than −25 μM^2% or μM(IU/mL) % is indicative of a significant antagonistic effect. The data presented in Table 5 represent volumes of synergy or antagonism with 95% confidence. The confidence level was calculated using a Bonferroni adjustment as a conservative estimate of significance to statistically evaluate the data.

BVDV [5] = test: Protection of MDBK cells from BVDV-induced cytopathicity (CPE reduction, MTS/PMS); type: cell-based, bovine viral diarrhea virus; settings: Bovine viral diarrhea virus isolates and strains, MDBK, 50% CPE reduction; MOI 0.01
in vitro [6] = settings: bovine; remark: listed apart in the source
[7] = Drug cytotoxicity in uninfected MDBK cells (MTS/PMS); settings: bovine
[8] = Cytotoxicity of test compound in MDBK cells in the absence of viral infection (Example 1); settings: bovine, MDBK cells, uninfected

With `CCCC(=O)O[C@H]1CN2CC[C@H](O)[C@@H]2[C@@H](O)[C@@H]1O` [Celgosivir, [1S-(1α,6β,7α,8β,8aβ)]-octahydro-1,6,7,8-indolizinetetrol 6-butanoate] the EC50 (BVDV [1]; Ribavirin 0 μM, Interferon-α2b 0 IU/mL) was about 6.5 µM, the EC50 (BVDV [1]; Ribavirin 0 μM, Interferon-α2b 0.7 IU/mL) was 4.8 ± 0.7 µM and the EC50 (BVDV [1]; Ribavirin 0 μM, Interferon-α2b 2.2 IU/mL) was 3.9 ± 0.9 µM. The EC50 (BVDV [1]; Ribavirin 0 μM, Interferon-α2b 6.7 IU/mL) was 1.6 ± 0.6 µM, the EC50 (BVDV [1]; Ribavirin 0 μM, Interferon-α2b 20 IU/mL) was under 0.4 µM and the EC50 (BVDV [1]; Ribavirin 0.37 μM, Interferon-α2b 0.7 IU/mL) was 4.3 ± 1 µM. For the same compound, the EC50 (BVDV [1]; Ribavirin 0.37 μM, Interferon-α2b 2.2 IU/mL) was 2.7 ± 1.3 µM, the EC50 (BVDV [1]; Ribavirin 0.37 μM, Interferon-α2b 6.7 IU/mL) was 1 ± 0.7 µM and the EC50 (BVDV [1]; Ribavirin 0.37 μM, Interferon-α2b 20 IU/mL) was under 0.3 µM. It also gave an EC50 (BVDV [1]; Ribavirin 1.1 μM, Interferon-α2b 0.7 IU/mL) of 2.9 ± 0.9 µM, an EC50 (BVDV [1]; Ribavirin 1.1 μM, Interferon-α2b 2.2 IU/mL) of 2.1 ± 0.2 µM and an EC50 (BVDV [1]; Ribavirin 1.1 μM, Interferon-α2b 6.7 IU/mL) of under 0.9 µM. For the same compound, the EC50 (BVDV [1]; Ribavirin 1.1 μM, Interferon-α2b 20 IU/mL) was under 0.3 µM, the EC50 (BVDV [1]; Ribavirin 3.3 μM, Interferon-α2b 0.7 IU/mL) was under 1 µM and the EC50 (BVDV [1]; Ribavirin 3.3 μM, Interferon-α2b 2.2 IU/mL) was under 0.3 µM. For the same compound, the EC50 (BVDV [1]; Ribavirin 3.3 μM, Interferon-α2b 6.7 IU/mL) was under 0.3 µM, the EC50 (BVDV [1]; Ribavirin 3.3 μM, Interferon-α2b 20 IU/mL) was under 0.3 µM and the “dose-dependent reduction in EC50” value (BVDV [1]; upon the addition of increasing concentrations of interferon-α2b) was “up to 26 fold”. For the same compound, the CC50 at 24 h (in vitro [2]) was over 2000 µM, the “effect of concomitant anti-diarrheal agent on the PK of celgosivir” value [3] was “no significant effect” and the EC50 (BVDV strain NADL) was 2 ± 1.3 µM. The EC90 (BVDV strain NADL) was 7.6 ± 2.3 µM, the “TI (Therapeutic Index, CC50/EC50)” value (BVDV strain NADL; MOI = 1) was over 1000 and the “fold reduction of EC50 of celgosivir” value (BVDV [4]; at 2 μM ribavirin) was 3 fold. The “fold reduction of EC50 of celgosivir” value (BVDV [4]; at 2.2 μM NM-107) was “more than 8 fold”, the EC50 (BVDV [5]) was 7.7 ± 3 µM and the CC50 (in vitro [6]) was over 300 µM.
With `NC(=O)c1ncn([C@@H]2O[C@H](CO)[C@@H](O)[C@H]2O)n1` [Ribavirin, ribavirin, reference compound] the EC50 (BVDV strain NADL) was 1.5 ± 1 µM, the EC90 (BVDV strain NADL) was 5.7 ± 2.7 µM and the CC50 [7] was at least 25 µM. The EC50 (BVDV [5]) was 4.4 ± 2 µM and the CC50 at 24 h [8] was 250 µM.
